Format in all cases: cell-based
Assay [1] concerns the target T1, pEGFR, PC-9 cells (d746-750 EGFR) (Homo sapiens, UniProt P00533, DEL746-750).
T1 construct: pEGFR (Tyr1068) TR-FRET
The experiment in a line: Cellular EGFR phosphorylation assay (LANCE Ultra TR-FRET) in PC-9 cells. To be noted: 4 hours at 37° C., read-out: PC-9 pEGFR IC50. The method in brief: (§1)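 Cells were treated with compound for 4 h at 37 °C as a 9-point, 3-fold titration; A431 cells were stimulated with 40 ng/mL EGF for the final 10 min. Phospho-EGFR (Tyr1068) in lysates was read by TR-FRET after 4-6 h antibody incubation, and IC50 values were fitted.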

The target in assay [2] is T2, pEGFR, NCI-H1975 cells (L858R/T790M EGFR) (Homo sapiens, UniProt P00533, L858R/T790M).
T2 construct: pEGFR (Tyr1068) TR-FRET
T2 sequence (P00533 25-1210 T790M/L858R): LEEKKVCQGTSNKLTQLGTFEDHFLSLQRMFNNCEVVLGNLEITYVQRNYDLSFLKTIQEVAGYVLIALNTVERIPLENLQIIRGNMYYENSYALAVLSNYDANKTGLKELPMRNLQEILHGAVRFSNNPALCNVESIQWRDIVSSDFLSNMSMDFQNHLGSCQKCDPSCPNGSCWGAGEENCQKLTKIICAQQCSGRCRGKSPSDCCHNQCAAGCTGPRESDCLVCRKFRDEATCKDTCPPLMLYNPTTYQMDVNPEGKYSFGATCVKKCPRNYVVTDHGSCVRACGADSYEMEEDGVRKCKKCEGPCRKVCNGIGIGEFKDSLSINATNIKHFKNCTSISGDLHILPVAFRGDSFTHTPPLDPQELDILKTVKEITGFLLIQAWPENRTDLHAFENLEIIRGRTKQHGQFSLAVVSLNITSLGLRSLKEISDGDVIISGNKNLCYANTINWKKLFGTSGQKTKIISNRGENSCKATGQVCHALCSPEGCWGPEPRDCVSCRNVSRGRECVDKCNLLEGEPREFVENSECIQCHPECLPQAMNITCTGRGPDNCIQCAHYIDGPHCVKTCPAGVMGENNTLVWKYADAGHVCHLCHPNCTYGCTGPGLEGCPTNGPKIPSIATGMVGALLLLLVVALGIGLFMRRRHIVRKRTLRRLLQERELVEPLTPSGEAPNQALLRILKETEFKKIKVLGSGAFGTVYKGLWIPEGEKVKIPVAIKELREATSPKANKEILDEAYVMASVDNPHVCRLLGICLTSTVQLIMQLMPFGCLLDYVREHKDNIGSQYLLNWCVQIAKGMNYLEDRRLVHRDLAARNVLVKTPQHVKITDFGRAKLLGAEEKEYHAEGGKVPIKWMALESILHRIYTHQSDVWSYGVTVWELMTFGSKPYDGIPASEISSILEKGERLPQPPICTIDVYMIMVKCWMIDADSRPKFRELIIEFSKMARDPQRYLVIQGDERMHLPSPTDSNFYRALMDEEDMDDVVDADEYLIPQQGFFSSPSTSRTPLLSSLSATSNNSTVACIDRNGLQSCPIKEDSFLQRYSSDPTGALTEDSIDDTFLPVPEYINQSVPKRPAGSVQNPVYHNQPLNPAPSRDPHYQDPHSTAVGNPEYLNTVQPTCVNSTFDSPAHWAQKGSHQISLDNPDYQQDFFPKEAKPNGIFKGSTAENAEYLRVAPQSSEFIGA
Description: Cellular EGFR phosphorylation assay (LANCE Ultra TR-FRET) in NCI-H1975 cells. As to conditions: 4 hours at 37° C., read-out: H1975 pEGFR IC50. The method in brief:
as §1

In assay [3] the target is T3, pEGFR, A431 cells (wildtype EGFR) (Homo sapiens, UniProt P00533).
T3 construct: pEGFR (Tyr1068) TR-FRET
T3 sequence (P00533 25-1210): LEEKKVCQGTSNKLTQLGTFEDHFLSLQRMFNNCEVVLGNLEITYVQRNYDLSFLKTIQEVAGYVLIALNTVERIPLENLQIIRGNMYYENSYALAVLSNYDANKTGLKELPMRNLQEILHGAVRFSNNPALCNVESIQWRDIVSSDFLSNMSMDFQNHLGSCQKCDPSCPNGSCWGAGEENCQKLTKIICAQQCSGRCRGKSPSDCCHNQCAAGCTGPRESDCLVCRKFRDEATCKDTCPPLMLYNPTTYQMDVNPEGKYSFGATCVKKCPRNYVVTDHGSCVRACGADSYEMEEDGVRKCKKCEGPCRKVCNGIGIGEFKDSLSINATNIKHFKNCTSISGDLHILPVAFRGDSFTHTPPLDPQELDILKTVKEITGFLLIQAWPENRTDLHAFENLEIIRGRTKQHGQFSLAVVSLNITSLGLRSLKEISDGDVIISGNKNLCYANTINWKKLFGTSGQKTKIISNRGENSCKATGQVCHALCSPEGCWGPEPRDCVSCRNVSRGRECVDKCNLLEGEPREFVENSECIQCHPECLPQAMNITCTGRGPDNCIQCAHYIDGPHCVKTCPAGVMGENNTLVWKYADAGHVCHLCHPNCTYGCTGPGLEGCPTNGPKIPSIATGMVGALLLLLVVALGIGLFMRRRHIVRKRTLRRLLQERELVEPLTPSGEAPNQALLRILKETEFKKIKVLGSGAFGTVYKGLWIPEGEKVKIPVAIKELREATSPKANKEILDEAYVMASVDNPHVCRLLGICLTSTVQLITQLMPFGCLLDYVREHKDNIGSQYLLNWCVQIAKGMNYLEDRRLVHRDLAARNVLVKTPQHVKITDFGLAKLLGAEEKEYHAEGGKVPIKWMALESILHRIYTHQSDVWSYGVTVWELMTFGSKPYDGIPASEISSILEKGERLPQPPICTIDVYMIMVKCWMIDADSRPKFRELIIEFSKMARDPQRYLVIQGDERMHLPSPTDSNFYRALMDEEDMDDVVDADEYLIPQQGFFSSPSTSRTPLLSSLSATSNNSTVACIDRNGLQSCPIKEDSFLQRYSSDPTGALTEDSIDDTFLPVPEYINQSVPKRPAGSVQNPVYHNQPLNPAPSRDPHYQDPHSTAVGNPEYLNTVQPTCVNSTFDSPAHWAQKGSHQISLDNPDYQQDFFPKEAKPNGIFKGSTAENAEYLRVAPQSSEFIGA
The experiment in a line: Cellular EGFR phosphorylation assay (LANCE Ultra TR-FRET) in A431 cells. As to conditions: 4 hours at 37° C., 40 ng/mL EGF for the final 10 minutes, read-out: A431 pEGFR IC50. The method in brief:
as §1

In a further assay the test system is PC-9 cells. The experiment in a line: 5-Day CellTiter Glo (CTG) cell proliferation assay, PC-9. To be noted: Homo sapiens; PC-9 cells (d746-750 EGFR), 5-day CTG proliferation, 120 hours; read-out: PC-9 IC50. The method in brief: (§2)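 Luminescent ATP signal (CellTiter-Glo 2.0) after 120 hours of compound exposure gave IC50 values. PC-9 and HCC827 harbour EGFR d746-750; NCI-H1975 harbours L858R/T790M.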

In the next assay the test system is NCI-H1975 cells. The experiment in a line: 5-Day CellTiter Glo (CTG) cell proliferation assay, NCI-H1975. As to conditions: Homo sapiens; NCI-H1975 cells (L858R/T790M EGFR), 5-day CTG proliferation, 120 hours; read-out: H1975 IC50. The method in brief: as §2
Another assay concerns HCC827 cells. Description: 5-Day CellTiter Glo (CTG) cell proliferation assay, HCC827. As to conditions: Homo sapiens; HCC827 cells (d746-750 EGFR), 5-day CTG proliferation, 120 hours; read-out: HCC827 IC50. The method in brief: as §2
Assay [4] concerns BaF3 cells with engineered EGFR L858R/T790M/C797S. The experiment in a line: 3-Day CellTiter Glo (CTG) cell proliferation assay, BaF3 EGFR L858R/T790M/C797S. As to conditions: Mus musculus, 3-day CTG proliferation, 72 hours. The method, then: (§3) 3-DAY CellTiter Glo (CTG) Cell Proliferation Assays (BaF3 Cell Lines)
(§4) Cell proliferation assays were carried out in BaF3 cells engineered with EGFR mutations. BaF3 cells with engineered EGFR L858R/T790M/C797S, EGFR L858R/C797S, or EGFR d746-750/T790M transgene, one thousand cells/50 μL per well were seeded in white 384-well plate, followed by treatment with indicated compounds in a 9-dose dilution series using TECAN d300e liquid dispenser. Cells were incubated with compounds for 72 hours at 37° C. and 5% CO2. Cell proliferation was measured using CellTiter-Gbo 2.0 luciferase-based ATP detection assay (Promega, Madison, WI) at 18 μL per well following the manufacturer's protocol. Plates were then read on a TECAN Sparks multimode microplate reader. Data was analyzed using GraphPad Prism 9 (GraphiPad Software, San Diego, CA) to obtain IC50 values.

The subject of assay [5] is BaF3 cells with engineered EGFR L858R/C797S. Description: 3-Day CellTiter Glo (CTG) cell proliferation assay, BaF3 EGFR L858R/C797S. As to conditions: Mus musculus, 3-day CTG proliferation, 72 hours. The method, then:
as §3, §4

Assay [6] relates to BaF3 cells with engineered EGFR d746-750/T790M. Description: 3-Day CellTiter Glo (CTG) cell proliferation assay, BaF3 EGFR d746-750/T790M. To be noted: Mus musculus; BaF3 EGFR d746-750/T790M cells, 3-day CTG proliferation, 72 hours. The method, then: as §3, §4

pIC50: −log10 of the molar value.

T1 sequence (P00533 with tags, fused parts or gaps DEL746-750): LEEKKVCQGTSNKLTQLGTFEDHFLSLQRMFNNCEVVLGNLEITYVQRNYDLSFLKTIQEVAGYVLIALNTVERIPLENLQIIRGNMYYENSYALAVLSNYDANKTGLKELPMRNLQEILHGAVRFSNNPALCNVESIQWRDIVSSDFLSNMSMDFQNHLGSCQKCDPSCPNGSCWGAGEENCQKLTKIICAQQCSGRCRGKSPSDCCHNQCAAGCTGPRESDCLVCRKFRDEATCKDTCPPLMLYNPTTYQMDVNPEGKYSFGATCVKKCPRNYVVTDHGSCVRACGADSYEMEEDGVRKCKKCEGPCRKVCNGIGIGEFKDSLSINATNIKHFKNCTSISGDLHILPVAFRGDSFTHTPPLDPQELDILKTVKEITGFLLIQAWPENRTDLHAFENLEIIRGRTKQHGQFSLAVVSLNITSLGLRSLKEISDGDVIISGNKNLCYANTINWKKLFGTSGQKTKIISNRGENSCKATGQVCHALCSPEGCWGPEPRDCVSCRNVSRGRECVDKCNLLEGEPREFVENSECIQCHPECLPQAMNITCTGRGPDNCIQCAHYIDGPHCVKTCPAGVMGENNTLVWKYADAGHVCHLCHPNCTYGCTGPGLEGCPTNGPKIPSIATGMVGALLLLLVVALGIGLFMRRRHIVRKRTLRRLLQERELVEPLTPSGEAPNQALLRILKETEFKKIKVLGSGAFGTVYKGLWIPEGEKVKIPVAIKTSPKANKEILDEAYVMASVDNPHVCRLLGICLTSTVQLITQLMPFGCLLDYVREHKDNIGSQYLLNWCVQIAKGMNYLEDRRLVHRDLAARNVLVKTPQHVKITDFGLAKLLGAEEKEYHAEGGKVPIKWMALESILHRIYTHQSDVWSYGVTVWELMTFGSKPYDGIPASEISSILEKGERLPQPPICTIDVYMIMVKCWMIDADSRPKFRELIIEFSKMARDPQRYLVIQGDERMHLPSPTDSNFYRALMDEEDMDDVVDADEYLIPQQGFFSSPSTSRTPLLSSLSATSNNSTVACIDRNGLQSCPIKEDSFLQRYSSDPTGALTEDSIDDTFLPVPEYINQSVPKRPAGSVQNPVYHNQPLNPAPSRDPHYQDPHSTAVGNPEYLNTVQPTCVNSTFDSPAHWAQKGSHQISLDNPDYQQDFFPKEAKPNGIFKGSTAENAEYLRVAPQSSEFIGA

`CCOc1nn(CCO)c2c1/C=C/c1n[nH]c3c(C)nc(cc13)-c1c(C)nn(C)c1OCCN(C)C2` [Ex. 75, 2-[(17E)-16-ethoxy-6,8,12,20-tetramethyl-2,8,10,11,12,13-hexahydro-14H-5,3-(azenometheno)tripyrazolo[3,4-f:3′,4′-j:4″,3″-n][1,4]oxazacyclopentadecin-14-yl]ethan-1-ol]: the pIC50 was 7.82 in assay [1]; 8.13 in assay [2]; 7.27 in assay [3]; 7.37 with PC-9 cells; 7.13 with NCI-H1975 cells; 7.98 in the assay with HCC827 cells. In addition, the pIC50 in [4] was 8.53; in assay [5], 9.66; in assay [6], 6.69.

Consider `CCOc1nn([C@@H](C)CO)c2c1/C=C/c1n[nH]c3cnc(cc13)-c1c(CC)nn(C)c1O[C@@H](C)CN(C)C2` [Ex. 82, (2S)-2-[(10S,17E)-16-ethoxy-6-ethyl-8,10,12-trimethyl-2,8,10,11,12,13-hexahydro-14H-5,3-(azenometheno)tripyrazolo[3,4-f:3′,4′-j:4″,3″-n][1,4]oxazacyclopentadecin-14-yl]propan-1-ol], for which the pIC50 in assay [1] is 8.63; in assay [2], 7.83; in assay [3], 7.61; in the assay with PC-9 cells, 8.81; with NCI-H1975 cells, 6.68; in the assay with HCC827 cells, 9.07. Besides, the pIC50 is 8.36 in [4], 9.92 in assay [5] and 7.18 in assay [6].

For `CCOc1nn(C[C@H](C)O)c2c1/C=C/c1n[nH]c3cnc(cc13)-c1c(C)nn(C)c1O[C@@H](C)CN(C)C2` [Ex. 86, (2S)-1-[(10S,17E)-16-ethoxy-6,8,10,12-tetramethyl-2,8,10,11,12,13-hexahydro-14H-5,3-(azenometheno)tripyrazolo[3,4-f:3′,4′-j:4″,3″-n][1,4]oxazacyclopentadecin-14-yl]propan-2-ol], the pIC50 in [1] was 8.96; in assay [2], 8.80; in assay [3], 8.12; in the assay on PC-9 cells, 9.17; with NCI-H1975 cells, 8.95; in the assay with HCC827 cells it was 9.52. In addition, the pIC50 in assay [4] was 9.27; in [5] it was 10.40; in assay [6], 9.16.

Regarding `CCOc1nn([C@H](C)CO)c2c1/C=C/c1n[nH]c3cnc(cc13)-c1c(C)nn(C)c1O[C@@H](C)CN(C)C2` [Ex. 88, (2R)-2-[(10S,17E)-16-ethoxy-6,8,10,12-tetramethyl-2,8,10,11,12,13-hexahydro-14H-5,3-(azenometheno)tripyrazolo[3,4-f:3′,4′-j:4″,3″-n][1,4]oxazacyclopentadecin-14-yl]propan-1-ol], the negative logarithm of the IC50 (pIC50) in assay [1] is 8.79; in assay [2], 8.66; in assay [3], 7.96; with PC-9 cells, 8.60; in the assay on NCI-H1975 cells, 8.29; in the assay on HCC827 cells, 9.41. The pIC50 in assay [4] is 9.07; in [5], 10.05; in assay [6] it was 8.81.

With `CCOc1nn([C@H](C)CO)c2c1/C=C/c1n[nH]c3cnc(cc13)-c1c(C)nn(C)c1O[C@H](C)CN(C)C2` [Ex. 89, (2R)-2-[(10R,17E)-16-ethoxy-6,8,10,12-tetramethyl-2,8,10,11,12,13-hexahydro-14H-5,3-(azenometheno)tripyrazolo[3,4-f:3′,4′-j:4″,3″-n][1,4]oxazacyclopentadecin-14-yl]propan-1-ol], the negative-log IC50 (pIC50) in [1] was 7.79; in assay [2], 7.32; in assay [3], 7.47; in the assay on PC-9 cells, 7.45; in the assay on NCI-H1975 cells, 6.90; in the assay with HCC827 cells, 7.96. Besides, the pIC50 in [4] was 7.68; in [5] it was 8.42; in assay [6], 7.36.

For the molecule `CCOc1nn(C[C@H](C)O)c2c1/C=C/c1n[nH]c3c(C)nc(cc13)-c1c(C)nn(C)c1O[C@@H](C)CN(C)C2` [Ex. 90, (2S)-1-[(10S,17E)-16-ethoxy-6,8,10,12,20-pentamethyl-2,8,10,11,12,13-hexahydro-14H-5,3-(azenometheno)tripyrazolo[3,4-f3′,4′-j:4″,3″-n][1,4]oxazacyclopentadecin-14-yl]propan-2-ol], the pIC50 in [1] was 8.90; in assay [2] it was 8.96; in assay [3], 8.07; in the assay with PC-9 cells it was 8.63; in the assay on NCI-H1975 cells, 9.01; in the assay on HCC827 cells, 9.24. The pIC50 was 9.32 in assay [4], 10.22 in assay [5] and 9.21 in assay [6].

Regarding `CCOc1nn([C@@H](C)CO)c2c1/C=C/c1n[nH]c3c(C)nc(cc13)-c1c(C)nn(C)c1O[C@@H](C)CNC2` [Ex. 91, (2S)-2-[(10S,17E)-16-ethoxy-6,8,10,20-tetramethyl-2,8,10,11,12,13-hexahydro-14H-5,3-(azenometheno)tripyrazolo[3,4-f:3′,4′-j:4″,3″-n][1,4]oxazacyclopentadecin-14-yl]propan-1-ol], the pIC50 is 7.16 in assay [1]; 7.67 in assay [2]; 7.46 in [3]; 7.20 in the assay on PC-9 cells; 7.24 with NCI-H1975 cells; 7.77 in the assay with HCC827 cells. Moreover, the pIC50 was 7.76 in assay [4], 8.03 in assay [5] and 7.34 in assay [6].

For `CCOc1nn([C@@H](C)CO)c2c1/C=C/c1n[nH]c3cnc(cc13)-c1c(C)nn(C)c1O[C@@H](C)CNC2` [Ex. 92, (2S)-2-[(10S,17E)-16-ethoxy-6,8,10-trimethyl-2,8,10,11,12,13-hexahydro-14H-5,3-(azenometheno)tripyrazolo[3,4-f:3′,4′-j:4″,3″-n][1,4]oxazacyclopentadecin-14-yl]propan-1-ol], the pIC50 was 7.90 in assay [1]; 7.85 in assay [2]; 7.48 in assay [3]; 7.36 in the assay on PC-9 cells; 7.16 in the assay on NCI-H1975 cells; 8.27 with HCC827 cells. Besides, the pIC50 in [4] was 8.39; in assay [5], 9.13; in assay [6], 7.53.

Consider `CCOc1nn(CCO)c2c1/C=C/c1n[nH]c3cnc(cc13)-c1c(cnn1C)OCCN(C)C2` [Ex. 104, 2-[(17E)-16-ethoxy-6,12-dimethyl-2,6,10,11,12,13-hexahydro-14H-5,3-(azenometheno)tripyrazolo[3,4-f:3′,4′-j:3″,4″-n][1,4]oxazacyclopentadecin-14-yl]ethan-1-ol], for which the pIC50 was 7.40 in assay [1]; 7.30 in [2]; 6.84 in assay [3]; 7.23 in the assay with PC-9 cells; 7.86 in the assay on HCC827 cells; 7.44 in [4]. Moreover, the negative-log IC50 (pIC50) in [5] was 8.16; in assay [6], 7.19.

With `CCN(C)c1nn([C@@H](C)CO)c2c1/C=C/c1n[nH]c3cnc(cc13)-c1c(C)nn(C)c1O[C@@H](C)CN(C)C2` [Ex. 105, (2S)-2-[(10S,17E)-16-[ethyl(methyl)amino]-6,8,10,12-tetramethyl-2,8,10,11,12,13-hexahydro-14H-5,3-(azenometheno)tripyrazolo[3,4-f:3′,4′-j:4″,3″-n][1,4]oxazacyclopentadecin-14-yl]propan-1-ol], the pIC50 in [1] was 6.50; in [2], 6.56; in [3], 6.44; in the assay on PC-9 cells, 6.68; in the assay on HCC827 cells, 7.28; in assay [4] it was 6.83. Also, the pIC50 was 7.81 in [5] and 6.16 in assay [6].

The values are drawn from US20260317344A1, “EGFR INHIBITORS FOR TREATING DISEASE” (BLOSSOMHILL THERAPEUTICS, INC., priority 2023, published 2026).
